These results are taken from US7084169B2, “Aminoalkoxyindoles and methods of use” (Roche Palo Alto LLC, priority 2002, dated 2006).

The target of this assay is T1, recombinant human 5-HT6 receptor (Homo sapiens, UniProt P50406).
T1 construct: expressed in transfected cells; membranes used
Briefly: Radioligand binding studies, competition for [3H]LSD binding in HEK293 cell membranes. The note with it: [3H]LSD (5 nM), membranes of HEK293 cells stably expressing recombinant human 5-HT6 receptor, pH 7.4, 37° C., 60 min; read-out: 5-HT6 affinity values (pKi) (converted). On the procedure: The binding activity of compounds of this invention in vitro was determined as follows. Duplicate determinations of ligand affinity are made by competing for binding of [^3H]LSD in cell membranes derived from HEK293 cells stably expressing recombinant human 5-HT6 receptor.
All determinations were made in assay buffer containing 50 mM Tris-HCl, 10 mM MgSO4, 0.5 mM EDTA, 1 mM ascorbic acid, pH 7.4 at 37° C., in a 250 microliter reaction volume. Assay tubes containing [^3H] LSD (5 nM), competing ligand, and membrane were incubated in a shaking water bath for 60 min. at 37° C., filtered onto Packard GF-B plates (pre-soaked with 0.3% PEI) using a Packard 96 well cell harvester and washed 3 times in ice cold 50 mM Tris-HCl. Bound [^3H] LSD was determined as radioactive counts per minute using Packard TopCount.
Displacement of [3H]LSD from the binding sites was quantified by fitting concentration-binding data to a 4-parameter logistic equation:
[formula] where Hill is the Hill slope, [ligand] is the concentration of competing radioligand and IC50 is the concentration of radioligand producing half-maximal specific binding of radioligand. The specific binding window is the difference between the Bmax and the basal parameters.

T1 sequence (P50406 whole entry): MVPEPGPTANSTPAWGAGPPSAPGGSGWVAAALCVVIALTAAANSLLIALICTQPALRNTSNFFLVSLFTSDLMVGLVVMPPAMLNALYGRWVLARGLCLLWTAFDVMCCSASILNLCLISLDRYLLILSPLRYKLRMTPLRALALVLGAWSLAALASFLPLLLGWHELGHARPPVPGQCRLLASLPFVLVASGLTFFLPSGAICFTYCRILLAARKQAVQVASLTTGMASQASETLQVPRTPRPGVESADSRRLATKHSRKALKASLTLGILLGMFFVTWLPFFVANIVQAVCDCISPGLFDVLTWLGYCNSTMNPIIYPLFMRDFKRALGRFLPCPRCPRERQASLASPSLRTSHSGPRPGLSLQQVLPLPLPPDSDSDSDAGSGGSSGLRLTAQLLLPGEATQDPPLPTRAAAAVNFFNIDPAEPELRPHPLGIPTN

`O=S(=O)(c1ccccc1)c1c[nH]c2c(OCCN3CCCC3)cccc12` [3-Benzenesulfonyl-7-(2-pyrrolidin-1-yl-ethoxy)-1H-indole]: the Ki is 20 nM. In the case of `O=S(=O)(c1ccccc1Cl)c1c[nH]c2c(OCCN3CCCC3)cccc12` [3-(2-Chloro-benzenesulfonyl)-7-(2-pyrrolidin-1-yl-ethoxy)-1H-indole], the Ki is 3.98 nM.

Take `O=S(=O)(c1cccc(Cl)c1)c1c[nH]c2c(OCCN3CCCC3)cccc12` [3-(3-Chloro-benzenesulfonyl)-7-(2-pyrrolidin-1-yl-ethoxy)-1H-indole]: the Ki was 5.01 nM.

On to `O=S(=O)(c1ccc(Cl)c(Cl)c1)c1c[nH]c2c(OCCN3CCCC3)cccc12` [3-(3,4-Dichloro-benzenesulfonyl)-7-(2-pyrrolidin-1-yl-ethoxy)-1H-indole], for which the Ki is 20 nM.
